Columns and labels:
[1] = molecular target: T1, BRD4 BD2 (Homo sapiens, UniProt O60885, Y97A); assay: BRD4 BD2 TR-FRET competition assay; type: binding; details: for IC50: BRD4 BD2 TR-FRET, read-out: pIC50 in the BRD4 BD2 assay (converted)
T1 construct: BRD4 (1-477) (Y97A) and (Y390A); made in house; host or cells: E. coli (pET15b vector)
Protocol: Time Resolved Fluorescence Resonance Energy Transfer (TR-FRET) assay
Bromodomain binding was assessed utilising a time resolved fluorescent resonance energy transfer (TR-FRET) competition assay. To enable this approach a known, high affinity, pan-BET interacting small molecule was labelled with Alexa Fluor® 647, which is a far-red-fluorescent dye (Reference Compound X). Reference Compound X acts as a reporter of bromodomain binding and is the acceptor fluorophore component of the TR-FRET pair. Europium chelate, conjugated to an anti-6*His antibody, was utilised as the donor fluorophore in the TR-FRET pair. […] A TR-FRET signal is generated when the donor and acceptor fluorophores are in close proximity, between 20-80 Å, which is enabled in this assay by binding of Reference Compound X to the bromodomain protein.
Assay Principle: In order to generate a TR-FRET signal, donor fluorophore is excited by a laser at A337 nm, which subsequently leads to emission at λ618 nm. If the acceptor fluorophore is in close proximity then energy transfer can occur, which leads to emission of Alexa Fluor® 647 at λ665 nm. In the presence of competitor compound, Reference Compound X can be displaced from binding to the bromodomain. If displacement occurs, the acceptor fluorophore is no longer in proximity to the donor fluorophore, which prevents fluorescent energy transfer and, subsequently, a loss of Alexa Fluor® 647 emission at λ665 nm.
(§1) The competition of the compounds of formula (I) with Reference Compound X for binding to the BET family (BRD2, BRD3, BRD4 and BRDT) was assessed using protein truncates spanning both bromodomain 1 (BD1) and bromodomain 2 (BD2). In order to monitor differential binding to either BD1 or BD2, single residue mutations of key tyrosines to alanine were made in the acetyl lysine binding pockets. To validate this approach, a double residue mutant tandem domain protein was produced for each of the BET family members. Utilising a Fluorescence Polarisation approach, binding affinities for each of the single and double mutants for Reference Compound X were determined.
Final purification was completed by Superdex 200 prep grade size exclusion column. Purified protein was stored at −80° C. in 20 mM HEPES pH 7.5 and 100 mM NaCl. […] Protocol for Bromodomain BRD2, 3, 4 and T, BD1+BD2 mutant TR-FRET competition assays:
All assay components were dissolved in an assay buffer composing of 50 mM HEPES pH7.4, 50 mM NaCl, 5% Glycerol, 1 mM DTT and 1 mM CHAPS. Reference Compound X was diluted, in assay buffer containing 20 nM single mutant, tandem bromodomain protein, to a concentration equivalent to 2*Kd for this bromodomain. The solution containing bromodomain and Reference Compound X was added to dose response dilutions of test compound or DMSO vehicle (a maximum of 0.5% DMSO is used in this assay) in Greiner 384 well black low volume microtitre plates and subsequently incubated for 30 minutes at rt. An equal volume of 3 nM of anti-6*His Europium chelate was added to all wells, followed by a further 30 minute incubation at rt. TR-FRET was detected using a Perkin Elmer Multimode plate reader, by exciting the donor fluorophore at λ337 nm and subsequently, after a delay of 50 μsecs, measuring emission of the donor and acceptor fluorophores at λ615 nm and λ665 nm, respectively. In order to control these assays, 16 replicates each of uninhibited (DMSO vehicle) and inhibited (10*IC50 concentrations of Example 11 of WO 2011/054846A1) TR-FRET assays were included on every microtitre plate.
cA four parameter curve fit of the following form was then applied: y=a+((b−a)/(1+(10^x/10^c)^d)
Where ‘a’ is the minimum, ‘H’ is the Hill slope, ‘c’ is the pIC50 and ‘d’ is the maximum.
All compounds (Examples) were each tested in the BRD4 BD1 and the BRD4 BD2 TR-FRET assays essentially as described above. Those of skill in the art will recognise that in vitro binding assays and cell-based assays for functional activity are subject to experimental variability.

[2] = test system: double residue mutant tandem domain BET proteins (BRD2, BRD3, BRD4 and BRDT); assay: Fluorescence Polarisation binding of Reference Compound X to mutant tandem BET proteins; parameters: species or system Human; details: double mutant vs non mutated tandem BET proteins
Protocol: as §1, with “determined. […] The affinities of the single mutated bromdomain tandem proteins for Reference Compound X were equi-potent with the corresponding non-mutated BET protein. […] In the TR-FRET competition assay, Reference Compound X is used at a concentration that is equivalent to the Kd for the non-mutated bromodomain, which ensures that no binding at the mutated bromodomain is detected. […]” for “determined.”

Compound	IC50 [1] [nM]	further results
CNC(=O)c1cc(C(=O)Nc2nnc(C(F)(F)F)s2)n([C@@H](C)c2ccccc2)n1 [Example 240]	1000 to 10000	–
CNC(=O)c1cc(C(=O)NC2CC2)nn1Cc1ccc2[nH]ccc2c1 [Example 233]	1000 to 10000	–
CNC(=O)c1cc(C(=O)NC2CC2)n(Cc2ccc(C#N)cc2)n1 [Example 102, 1-(4-Cyanobenzyl)-N^5-cyclopropyl-N^3-methyl-1H-pyrazole-3,5-dicarboxamide]	1000 to 10000	–
CNC(=O)c1cc(C(=O)N[C@H]2[C@@H]3C[C@@H](O)C[C@@H]32)n([C@H](C)c2ccc(C(F)(F)F)cc2)n1 [Example 229]	1000 to 10000	–
CNC(=O)c1cc(C(=O)Nc2c(C)noc2C)n([C@@H](C)c2ccccc2)n1 [Example 248]	1000 to 10000	–
CNC(=O)c1cc(C(=O)NC2CC2)nn1Cc1cccc2[nH]ccc12 [Example 234]	1000 to 10000	–
CNC(=O)c1cc(C(=O)N[C@H]2[C@@H]3COC[C@@H]32)n([C@H](C)c2cccc3[nH]ccc23)n1 [Example 132, 1-((R)-1-(1H-Indol-4-yl)ethyl)-N^5-((1R,5S,6r)-3-oxabicyclo[3.1.0]hexan-6-yl)-N^3-methyl-1H-pyrazole-3,5-dicarboxamide]	1000 to 10000	–
CCNC(=O)c1cc(C(=O)N[C@H]2CC[C@H](O)CC2)n([C@@H](C)c2ccccc2)n1 [Example 108, N^3-Ethyl-N^5-((1r,4S)-4-hydroxycyclohexyl)-1-((S)-1-phenylethyl)-1H-pyrazole-3,5-dicarboxamide]	1000 to 10000	–
CNC(=O)c1cc(C(=O)NC2CC2)n(Cc2ccccc2OC)n1 [Example 106, N^5-Cyclopropyl-1-(2-methoxybenzyl)-N^3-methyl-1H-pyrazole-3,5-dicarboxamide]	1000 to 10000	–
CNC(=O)c1cc(C(=O)N[C@H]2[C@@H]3COC[C@@H]32)n([C@@H](C)c2ccccc2)n1 [Example 1, N^5-((1R,5S,6r)-3-Oxabicyclo[3.1.0]hexan-6-yl)-N^3-methyl-1-((S)-1-phenylethyl)-1H-pyrazole-3,5-dicarboxamide]	63.1	selectivity for BRD4 BD2 over BRD4 BD1 ([1]; BRD4 BD2 pIC50 − BRD4 BD1 pIC50, in at least one of the TR-FRET assays): 2.8 log units
CNC(=O)c1cc(C(=O)NC)n(Cc2ccccc2)n1 [Example 94, 1-Benzyl-N^3,N^5-dimethyl-1H-pyrazole-3,5-dicarboxamide]	1000 to 10000	–
CNC(=O)c1cc(C(=O)Nc2onc(C)c2C#N)n([C@@H](C)c2ccccc2)n1 [Example 239]	1000 to 10000	–
CNC(=O)c1cc(C(=O)N[C@H]2[C@@H]3C[C@H](O)C[C@@H]32)n([C@H](C)c2cccc(C(F)(F)F)c2)n1 [Example 238]	1000 to 10000	–
CNC(=O)c1cc(C(=O)N[C@@H]2C[C@@H](C)[C@H](O)[C@@H](C)C2)n([C@@H](C)c2ccccc2)n1 [Example 236]	1000 to 10000	–
COc1ccc2c(c1)C(c1ccc(Cl)cc1)=N[C@@H](CC(=O)NCCCCCNC(=O)CCCCCC1(C)/C(=C/C=C/C=C/C3=[N+](CCCCS(=O)(=O)O)c4ccc(S(=O)(=O)O)cc4C3(C)C)N(CCCCS(=O)(=O)[O-])c3ccc(S(=O)(=O)O)cc31)c1nnc(C)n1-2 (stereo partly drawn) [Reference Compound X]	–	reduction in Kd (affinity) of double mutant tandem proteins versus wild type tandem BET proteins [2]: > 1000 fold
CNC(=O)c1cc(C(=O)NC(C)(C)C)n([C@@H](C)c2ccccc2)n1 [Example 112, (S)-N^5-(tert-Butyl)-N^3-methyl-1-(1-phenylethyl)-1H-pyrazole-3,5-dicarboxamide]	1000 to 10000	–
CNC(=O)c1cc(C(=O)NC2[C@H]3C[C@H](O)C[C@@H]23)n([C@H](C)c2cccc(C(F)(F)F)c2)n1 (stereo partly drawn) [Example 241]	1000 to 10000	–
CNC(=O)c1cc(C(=O)NC(C)C)n(Cc2ccccc2)n1 [Example 96, 1-Benzyl-N^5-isopropyl-N^3-methyl-1H-pyrazole-3,5-dicarboxamide]	1000 to 10000	–
CNC(=O)c1cc(C(=O)N[C@H]2C[C@@H]2C)n(C(C)c2ccnc3c2ccn3S(=O)(=O)c2ccc(C)cc2)n1 (stereo partly drawn) [Example 135, N^3-Methyl-N^5-((1S,2S)-2-methylcyclopropyl)-1-(1-(1-tosyl-1H-pyrrolo[2,3-b]pyridin-4-yl)ethyl)-1H-pyrazole-3,5-dicarboxamide]	1000 to 10000	–
CNC(=O)c1cc(C(=O)N[C@H]2C[C@@H]2C)n([C@H](C)c2ccnc3[nH]ccc23)n1 [Example 137, 1-((R)-1-(1H-Pyrrolo[2,3-b]pyridin-4-yl)ethyl)-N^3-methyl-N^5-((1S,2S)-2-methylcyclopropyl)-1H-pyrazole-3,5-dicarboxamide]	1000 to 10000	–
CNC(=O)c1cc(C(=O)N[C@H]2[C@@H]3COC[C@@H]32)n([C@H](C)c2ccc(Cl)c(F)c2)n1 [Example 237]	1000 to 10000	–
CNC(=O)c1cc(C(=O)N[C@H]2[C@@H]3COC[C@@H]32)n([C@@H](C)c2ccccc2OC)n1 [Example 136, N^5-((1R,5S,6r)-3-Oxabicyclo[3.1.0]hexan-6-yl)-1-((S)-1-(2-methoxyphenyl)ethyl)-N^3-methyl-1H-pyrazole-3,5-dicarboxamide]	1000 to 10000	–
CNC(=O)c1cc(C(=O)N[C@H]2[C@@H]3COC[C@@H]32)n([C@H](C)c2ccccc2)n1 [Example 109, N^5-((1R,5S,6r)-3-Oxabicyclo[3.1.0]hexan-6-yl)-N^3-methyl-1-((R)-1-phenylethyl)-1H-pyrazole-3,5-dicarboxamide]	1000 to 10000	–
